ChEMBL document CHEMBL1201862, “PubChem BioAssay data set” (2004)
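Step 1: Grow cells in 96-well plates. Step 2: Expose to compound for 48 hours at 5 concentrations. Step 3: Interpolate endpoints linearly; if unreached, use highest concentration. At the GI50, growth is halved.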 Activity calls are given as the source filed them. Rule as the data show it: active = GI50 up to about 1.1 µM and inactive = higher.

What was measured:
Assay in all cases: DTP human tumour cell line panel, 48 h
786-0 = tested on: 786-0
CCRF-CEM = tested on: CCRF-CEM
COLO 205 = tested on: COLO 205
EKVX = tested on: EKVX
HOP-62 = tested on: HOP-62
HT-29 = tested on: HT-29
K562 = tested on: K562
M14 = tested on: M14
MOLT-4 = tested on: MOLT-4
NCI-H23 = tested on: NCI-H23
NCI-H522 = tested on: NCI-H522
OVCAR-8 = tested on: OVCAR-8
RPMI-8226 = tested on: RPMI-8226
SF-295 = tested on: SF-295
SK-MEL-28 = tested on: SK-MEL-28
SN12C = tested on: SN12C
SW-620 = tested on: SW-620
UO-31 = tested on: UO-31
RXF 393 = tested on: RXF 393

Measured: GI50

COc1cc(-c2cc(=O)c3cc(C)c(C)c(C(=O)O)c3o2)cc(OC)c1OC
inactive: 786-0 > 100 µM | CCRF-CEM > 100 µM | COLO 205 > 100 µM | EKVX > 100 µM | HOP-62 > 100 µM | HT-29 > 100 µM | K562 > 100 µM | M14 > 100 µM | MOLT-4 > 100 µM | NCI-H23 > 100 µM | NCI-H522 67.6 µM | OVCAR-8 > 100 µM | RPMI-8226 > 100 µM | SF-295 > 100 µM | SK-MEL-28 > 100 µM | SN12C > 100 µM | SW-620 > 100 µM | UO-31 > 100 µM

Cc1ccc(S(=O)(=O)n2c(-c3ccccc3)c(-c3ccccc3)c3ccccc32)cc1
inactive: 786-0 > 100 µM | CCRF-CEM > 100 µM | COLO 205 > 100 µM | EKVX > 100 µM | HOP-62 > 100 µM | HT-29 > 100 µM | K562 64.9 µM | M14 > 100 µM | MOLT-4 > 100 µM | NCI-H23 17.7 µM | NCI-H522 > 100 µM | OVCAR-8 > 100 µM | RPMI-8226 23.1 µM | RXF 393 > 100 µM | SF-295 97.5 µM | SK-MEL-28 > 100 µM | SN12C > 100 µM | SW-620 > 100 µM | UO-31 > 100 µM

Cc1ccc(NCC(=O)N2CC(=O)Nc3ccccc32)c(C)c1
inactive: 786-0 > 100 µM | CCRF-CEM > 100 µM | COLO 205 > 100 µM | EKVX > 100 µM | HOP-62 > 100 µM | HT-29 > 100 µM | K562 > 100 µM | M14 > 100 µM | MOLT-4 > 100 µM | NCI-H23 > 100 µM | NCI-H522 > 100 µM | OVCAR-8 > 100 µM | RPMI-8226 > 100 µM | RXF 393 > 100 µM | SF-295 > 100 µM | SK-MEL-28 > 100 µM | SN12C > 100 µM | SW-620 > 100 µM | UO-31 > 100 µM

S=c1sc2c(Cl)ncnc2n1-c1ccccc1
inactive: 786-0 15.1 µM | COLO 205 14 µM | EKVX 17.7 µM | HOP-62 15.6 µM | HT-29 11.4 µM | M14 13.3 µM | MOLT-4 18.2 µM | NCI-H23 17.4 µM | NCI-H522 2.01 µM | OVCAR-8 16.1 µM | RPMI-8226 23.8 µM | RXF 393 15.1 µM | SF-295 12.8 µM | SK-MEL-28 11.2 µM | SN12C 15.8 µM | SW-620 17.4 µM | UO-31 18.7 µM

COc1cc(/C=C2\NC(=S)C3Cc4c(OC)c(C)c(OC)c(OC)c4C2N3C)c(OC)c(C)c1OC (stereo not drawn)
inactive: 786-0 73.1 µM | CCRF-CEM 38.7 µM | COLO 205 16.5 µM | EKVX 36.8 µM | HOP-62 > 100 µM | HT-29 61.4 µM | K562 49.4 µM | M14 42.8 µM | MOLT-4 21.2 µM | NCI-H23 86.1 µM | NCI-H522 20 µM | OVCAR-8 32.5 µM | RPMI-8226 25.6 µM | RXF 393 24.7 µM | SF-295 50.5 µM | SK-MEL-28 > 100 µM | SN12C > 100 µM | SW-620 59.4 µM | UO-31 21.2 µM

CCCC(=O)c1c(NOC2OC(COC(C)=O)C(OC(C)=O)C(OC(C)=O)C2OC(C)=O)nc(OC)n(C)c1=O (stereo not drawn)
inactive: 786-0 > 100 µM | CCRF-CEM > 100 µM | COLO 205 > 100 µM | EKVX > 100 µM | HOP-62 > 100 µM | HT-29 > 100 µM | K562 > 100 µM | M14 > 100 µM | MOLT-4 > 100 µM | NCI-H23 > 100 µM | NCI-H522 > 100 µM | OVCAR-8 > 100 µM | RXF 393 > 100 µM | SF-295 > 100 µM | SK-MEL-28 > 100 µM | SN12C > 100 µM | SW-620 > 100 µM | UO-31 6.1 µM

COC(=O)C(CCCCCCCC(C(=O)OC)C1=Nc2nnc(N)n2C1=O)C1=Nc2nnc(N)n2C1=O (stereo not drawn)
inactive: 786-0 > 100 µM | CCRF-CEM > 100 µM | COLO 205 > 100 µM | EKVX > 100 µM | HOP-62 > 100 µM | HT-29 > 100 µM | M14 > 100 µM | MOLT-4 > 100 µM | NCI-H23 > 100 µM | NCI-H522 > 100 µM | OVCAR-8 94.8 µM | RPMI-8226 4.07 µM | RXF 393 55.8 µM | SF-295 61.9 µM | SK-MEL-28 > 100 µM | SN12C > 100 µM | SW-620 > 100 µM | UO-31 > 100 µM

CSC1CC2C(CC1(C)SC)C2(C)C (stereo not drawn)
inactive: 786-0 64.9 µM | CCRF-CEM 28.2 µM | COLO 205 37.3 µM | EKVX 30.2 µM | HOP-62 > 100 µM | HT-29 38.8 µM | K562 24.3 µM | M14 92 µM | MOLT-4 22.6 µM | NCI-H23 61.7 µM | NCI-H522 > 100 µM | OVCAR-8 39.5 µM | RPMI-8226 24.3 µM | RXF 393 56.5 µM | SF-295 30.8 µM | SK-MEL-28 > 100 µM | SW-620 > 100 µM | UO-31 19.9 µM

COc1cc2c(cc1OC)[C@H]1C(COC(=O)c3ccccc3)CS/C(=N/c3ccccc3)N1CC2 (stereo partly drawn)
inactive: 786-0 > 100 µM | CCRF-CEM > 100 µM | COLO 205 > 100 µM | EKVX > 100 µM | HOP-62 > 100 µM | HT-29 8.24 µM | M14 > 100 µM | MOLT-4 2.91 µM | NCI-H23 5.9 µM | NCI-H522 2.34 µM | OVCAR-8 > 100 µM | RPMI-8226 4.33 µM | RXF 393 13.3 µM | SF-295 > 100 µM | SK-MEL-28 > 100 µM | SN12C > 100 µM | SW-620 > 100 µM | UO-31 24.5 µM

C[C@@H]1C[C@@H]2C(=O)N(c3ccccc3)C(=O)[C@@H]2c2[nH]c3ccc(Br)cc3c21
inactive: 786-0 39.2 µM | CCRF-CEM > 100 µM | COLO 205 > 100 µM | EKVX 36.9 µM | HOP-62 23.3 µM | K562 49.1 µM | M14 75.2 µM | MOLT-4 25 µM | NCI-H23 89.7 µM | NCI-H522 24 µM | OVCAR-8 21.8 µM | RXF 393 43.4 µM | SF-295 32.4 µM | SK-MEL-28 > 100 µM | SN12C 41 µM | SW-620 35.5 µM | UO-31 45.9 µM

C=CC1(C(=O)O)CCC(C(C)(C)C)CC1 (stereo not drawn)
inactive: 786-0 > 100 µM | COLO 205 > 100 µM | EKVX > 100 µM | HOP-62 > 100 µM | HT-29 > 100 µM | K562 > 100 µM | M14 > 100 µM | MOLT-4 > 100 µM | NCI-H23 > 100 µM | NCI-H522 86.1 µM | OVCAR-8 > 100 µM | RPMI-8226 > 100 µM | RXF 393 > 100 µM | SF-295 > 100 µM | SN12C > 100 µM | SW-620 > 100 µM | UO-31 > 100 µM
